Experimental data: patent US20100297020A1, “PHOSPHORYLATED AND PHOSPHONATED PYRONE ANALOGS FOR THERAPEUTIC TREATMENT” (Limerick Biopharma, Inc., priority 2008, published 2010)
One block for each compound: values may come before it.

Experiments:
[1] = tested on: BB19 cells, human BCECs (brain capillary endothelial cells); test: Tacrolimus uptake assay; assay type: cell-based; details: Endothelial cell, 1 h, 0.1 μM test compound, 1 hour incubation, 3H-tacrolimus 34 nM, read-out: cell associated ^3H-tacrolimus uptake, % of control
Description: (§1) BB19 cells, human BCECs (brain capillary endothelial cells) immortalized with the E6E7 genes of human papilloma virus, were kindly provided from Jacques G. Prudhomme, Department of Biology, University of California, Riverside, U.S.A. The cells were cultured as monolayer culture in Amniomax™-C100 basal medium (catalog number 17001-157) with Amniomax™-C100 supplement (catalog number 12556-049) (Invitrogen, Basel, CH).
(§2) Cells were seeded onto culture surfaces precoated with 10 μg/cm^2 rat tail collagen type I (BD Bioscience, Allschwil, CH) at a density of approximately 50′000 cells/cm^2 and were cultured in an incubator at 37° C. with 5% CO2, 95% fresh air and saturated humidity. For uptake assays, cells were seeded on precoated 96-well plates. Assays were performed at confluency, after 6 days in culture.
(§3) BB19 cells were seeded 50′000 cells/cm^2 on 96-well plates (Falcon) and incubated under condition described above for 6 days. Before starting the assay, cells were washed 2 times with pre-warmed Dulbecco's MEM with Glutamax-I (catalog number 61965) (Invitrogen AG, Basel, CH), supplemented with 1% non essential amino acids, 1% sodium pyruvate, 50 μg/ml gentamycin (Invitrogen AG) (DMEM). Cells were then incubated for 15 min at 37° C. and 120 rpm in DMEM with or without the specified concentrations of test compounds under investigation. After this pre-incubation, cells were incubated in DMEM containing [propyl-3H]-dihydro-FK506 (3H-tacrolimus, 1 μCi/ml, 34 nM) and with or without the specified concentrations of test compounds for 1 hour at 37° C. and 120 rpm. During this 1-hour incubation period, influx and efflux of the substrate, ^3H-tacrolimus, occur. After the 1-hour incubation period, assay was terminated by placing the assay plate on ice and washing the cells twice with ice-cold DMEM. Determination of cell associated ^3H-tacrolimus was performed by addition of Insta Gel and scintillation liquid to trypsinized cells followed by analysis on a scintillation counter (Packard TriCarb2000, Can berra Packard S.A.). The results are expressed as: % of control=100×[^3H-tacrolimus conc. with test compound]/[^3H-tacrolimus conc. with vehicle]

[2] = tested on: BB19 cells, human BCECs (brain capillary endothelial cells); test: Cyclosporin uptake assay; assay type: cell-based; details: 0.1 μM test compound; 1 hour incubation
Description: as §1, §2, §3
The cyclosporin uptake assay was performed similarly as described above for tacrolimus uptake assay except that ^3H-cyclosporin was used in place of ^3H-tacrolimus.

[3] = tested on: rats treated with tacrolimus; test: Renal pathology in rats co-administered with tacrolimus; assay type: in vivo; details: tacrolimus 0.5 mg/kg with vehicle or with Compound 2 at 11, 28 and 114 mg/kg, 25 days
Description: Tissue is removed from the kidney of rats treated with tacrolimus (Prograf®) at 0.5 mg/kg and inert vehicle, and from rats treated with tacrolimus (Prograf®) at 0.5 mg/kg and quercetin-3′-O-methylphosphonate (Compound 2) at 11 mg/kg, 28 mg/kg, and at 114 mg/kg for 25 days. […] The tissue from rats treated with Compound 2 and tacrolimus show no vacuoles.

[4] = tested on: tacrolimus treated Wistar rats; test: Tacrolimus induced hyperglycemia in male Wistar rats; assay type: in vivo; details: for plasma glucose levels by day-14: tacrolimus 2 mg/kg PO daily, alone or with compound 1 at 30, 10 and 3 mg/kg IP
[5] = tested on: cyclosporin treated Wistar rats; test: Cyclosporine induced hyperglycemia in male Wistar rats; assay type: in vivo
[6] = tested on: cyclosporin treated Wistar rats; test: Islet histopathology and apoptosis in cyclosporine treated Wistar rats; assay type: in vivo; details: cyclosporine 10 mg/kg PO, alone (Group-2) or with compound 1 30 mg/kg IP (Group-3)
male ZDF rats = test: 4-week study in male ZDF rats (compound 1)
[7] = compound 1 30 mg/kg, rosiglitazone 6 mg/kg, compared to vehicle

Compound: O=c1c(O)c(-c2ccc(O)c(OCP(=O)(O)O)c2)oc2ccccc12 [Compound 18, (2-Hydroxy-5-(3-hydroxy-4-oxo-4H-chromen-2-yl)phenoxy)methylphosphonic acid]
activity at 0.1 µM [1]: 66%
cell associated ^3H-cyclosporin uptake, % of control [2]: 77 % of control

Compound: O=c1c(O)c(-c2ccccc2)oc2cc(O)cc(OCP(=O)(O)O)c12 [Compound 16, (3,7-Dihydroxy-4-oxo-2-phenyl-4H-chromen-5-yloxy)methylphosphonic acid]
activity at 0.1 µM [1]: 54%

vacuolation of kidney tissue [3]: significant vacuolation
Compound: C=CC[C@@H]1/C=C(\C)C[C@H](C)C[C@H](OC)[C@H]2O[C@@](O)(C(=O)C(=O)N3CCCC[C@H]3C(=O)O[C@H](/C(C)=C/[C@@H]3CC[C@@H](O)[C@H](OC)C3)[C@H](C)[C@@H](O)CC1=O)[C@H](C)C[C@@H]2OC [Tacrolimus, tacrolimus, reference compound]
plasma glucose levels by day-14 [4]: induced hyperglycemia is clearly demonstrated

Compound: O=c1c(O)c(-c2ccccc2)oc2cc(OCP(=O)(O)O)cc(O)c12 [Compound 10, (3,5-Dihydroxy-4-oxo-2-phenyl-4H-chromen-7-yloxy)methylphosphonic acid]
activity at 0.1 µM [1]: 51%

Compound: O=c1c(OCP(=O)(O)O)c(-c2ccc(O)c(O)c2)oc2ccccc12 [Compound 20, (2-(3,4-Dihydroxyphenyl)-4-oxo-4H-chromen-3-yloxy)methylphosphonic acid]
activity at 0.1 µM [1]: 62%
cell associated ^3H-cyclosporin uptake, % of control [2]: 77 % of control

Compound: O=c1c(O)c(-c2ccc(OCP(=O)(O)O)cc2)oc2cc(O)cc(O)c12 [Compound 11, (4-(3,5,7-Trihydroxy-4-oxo-4H-chromen-2-yl)phenoxy)methylphosphonic acid]
activity at 0.1 µM [1]: 49%
cell associated ^3H-cyclosporin uptake, % of control [2]: 78 % of control

Compound: O=c1c(OCP(=O)(O)O)c(-c2ccc(O)c(O)c2)oc2cc(O)cc(O)c12 [Compound 1, Quercetin-3-O-methylphosphonic acid]
plasma glucose level during OGTT ([5]; compound 1 30 mg/kg IP with cyclosporine 10 mg/kg PO, day-15): a level similar to that of vehicle treated animals
plasma glucose levels by day-14 ([5]; cyclosporine 10 mg/kg PO daily, alone or with compound 1 at 30, 10 and 3 mg/kg IP): reduced cyclosporine induced hyperglycemia
plasma glucose levels by day-14 ([5]; cyclosporine 10 mg/kg PO with compound 1 at 30 mg/kg IP): completely prevented cyclosporine induced hyperglycemia
number of apoptotic islet cells [6]: reduced the number of apoptotic cells to that of vehicle treated animals
islet cell hyperplasia and degeneration/necrosis scores ([6]; score 0-4): normalized the scores to that of vehicle treated animals
plasma insulin level during OGTT ([4]; 0, 15 and 30 minutes post glucose, compound 1 at all three dose levels with tacrolimus 2 mg/kg): higher than tacrolimus treated (group-2) or vehicle treated (Group-1) animals
plasma glucose level during OGTT ([4]; compound 1 30 mg/kg and 10 mg/kg IP with tacrolimus 2 mg/kg PO, day-15): a level similar to that of vehicle treated animals
plasma glucose levels by day-14 [4]: reduced tacrolimus induced hyperglycemia
plasma glucose levels (male ZDF rats; 4 weeks daily i.p., compound 1 30 and 10 mg/kg): maintains a lower plasma glucose level than vehicle treatment
glycated hemoglobin levels (% HbA1c) at termination (male ZDF rats; [7]): significantly lower glycated hemoglobin levels
pancreatic insulin levels (male ZDF rats; [7]): significantly higher than that of the vehicle treated animals
plasma insulin levels, fed and fasting (male ZDF rats; day-28 and day-29): significantly higher plasma insulin levels under both fed and fasting conditions
liver triglyceride (male ZDF rats; four weeks of daily treatment): did not increase liver triglyceride
plasma glucose during OGTT (male ZDF rats; oral glucose 2 g/kg, day-29 after 12-hr fast, 15, 30, 60, 90 minutes): maintain lower plasma glucose level during OGTT
